Measurements as given in US9328099B2, “Cyanomethylpyrazole carboxamides as janus kinase inhibitors” (Merck Sharp & Dohme Corp., priority 2011, dated 2016).

Target: JAK2 (Homo sapiens (Human), UniProt O60674)
Experiment: Jak Biochemical HTRF Assay, JAK2
Details: not given
Description: (§1) Jak Biochemical HTRF Assay Protocol
(§2) Subsequent reagent additions employed an Agilent Bravo.

Sequence of JAK2 (O60674 849-1124): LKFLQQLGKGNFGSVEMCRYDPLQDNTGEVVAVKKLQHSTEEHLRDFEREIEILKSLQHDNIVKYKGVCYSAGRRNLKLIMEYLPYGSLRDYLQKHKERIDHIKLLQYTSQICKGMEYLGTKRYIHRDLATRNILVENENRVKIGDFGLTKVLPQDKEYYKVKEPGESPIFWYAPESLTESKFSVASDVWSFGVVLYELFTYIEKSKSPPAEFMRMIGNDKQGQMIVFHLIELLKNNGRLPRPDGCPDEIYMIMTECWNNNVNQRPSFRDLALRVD

SMILES | IC50 [nM]
COC(=O)C(C)(C)OC(=O)N1CCC(CC#N)(n2cc(C(N)=O)c(Nc3ccc(F)cc3)n2)CC1 [Example 29-A, 1-Methoxy-2-methyl-1-oxopropan-2-yl4-{4-carbamoyl-3-[(4-fluorophenyl)amino]-1H-pyrazol-1-yl}-4-(cyanomethyl)piperidine-1-carboxylate] | 40
N#CCC1(n2cc(C(N)=O)c(Nc3ccc(S(=O)(=O)C(F)F)cc3)n2)CCC(Nc2ccc(O)cc2)CC1 (stereo not drawn) [Example 40-7, Cis or trans 1-{1-(cyanomethyl)-4-[(4-hydroxyphenyl)amino]cyclohexyl}-3-({4-[(difluoromethyl)sulfonyl]phenyl}amino)-1H-pyrazole-4-carboxamide] | 36
N#CCC1(n2cc(C(N)=O)c(Nc3ccc(S(=O)(=O)C(F)F)cc3)n2)CCC(Nc2cccnc2)CC1 (stereo not drawn) [Example 40-9, Cis or trans 1-[1-(cyanomethyl)-4-(pyridin-3-ylamino)cyclohexyl]-3-({4-[(difluoromethyl)sulfonyl]phenyl}amino)-1H-pyrazole-4-carboxamide] | 352
N#CCC1(n2cc(C(N)=O)c(Nc3ccc(S(=O)(=O)C(F)F)cc3)n2)CCC(Nc2cccc(O)c2)CC1 (stereo not drawn) [Example 40-14, Cis or trans 1-{1-(cyanomethyl)-4-[(3-hydroxyphenyl)amino]cyclohexyl}-3-({4-[(difluoromethyl)sulfonyl]phenyl}amino)-1H-pyrazole-4-carboxamide] | 65
N#CCC1(n2cc(C(N)=O)c(Nc3ccc(S(=O)(=O)C(F)F)cc3)n2)CCC(Nc2ccccc2O)CC1 (stereo not drawn) [Example 40-32, Cis or trans 1-{1-(cyanomethyl)-4-[(2-hydroxyphenyl)amino]cyclohexyl}-3-({4-[(difluoromethyl)sulfonyl]phenyl}amino)-1H-pyrazole-4-carboxamide] | 177
N#CCC1(n2cc(C(N)=O)c(Nc3ccnc(F)c3)n2)CCC(NC2CCOCC2)CC1 (stereo not drawn) [Example 40-38, Cis or trans 1-[1-(cyanomethyl)-4-(tetrahydro-2H-pyran-4-ylamino)cyclohexyl]-3-[(2-fluoropyridin-4-yl)amino]-1H-pyrazole-4-carboxamide] | 103
N#CCC1(n2cc(C(N)=O)c(Nc3ccc(F)cc3)n2)CCC(NC2CCOCC2)CC1 (stereo not drawn) [Example 40-65, Cis or trans 1-[1-(cyanomethyl)-4-(tetrahydro-2H-pyran-4-ylamino)cyclohexyl]-3-[(4-fluorophenyl)amino]-1H-pyrazole-4-carboxamide] | 129
N#CC[C@]1(n2cc(C(N)=O)c(Nc3ccccc3)n2)CC[C@@H](C(=O)NCC(F)(F)F)CC1 [Example 45-1, cis or trans 1-{1-(cyanomethyl)-4-[(2,2,2-trifluoroethyl)carbamoyl]cyclohexyl}-3-(phenylamino)-1H-pyrazole-4-carboxamide] | 301

Same assay, conditions: HTRF biochemical assay, GST-tagged catalytic domain; top concentration tested […]

SMILES | IC50 [nM]
C[C@H]1CN(C(=O)OC(C)(C)C)CC[C@]1(CC#N)n1cc(C(N)=O)c(Nc2ccccc2)n1 (racemic) [Example 2-9, tert-Butyl (3S,4R and 3R,4S)-4-[4-carbamoyl-3-(phenylamino)-1H-pyrazol-1-yl]-4-(cyanomethyl)-3-methylpiperidine-1-carboxylate] | 21
C[C@H]1C[C@](CC#N)(n2cc(C(N)=O)c(Nc3ccccc3)n2)CCN1C(=O)OC(C)(C)C (racemic) [Example 2-10] | 21
C[C@@H]1C[C@](CC#N)(n2cc(C(N)=O)c(Nc3ccccc3)n2)CCN1C(=O)OC(C)(C)C (racemic) [Example 2-11, tert-butyl (2R,4R and 2S,4S)-4-[4-carbamoyl-3-(phenylamino)-1H-pyrazol-1-yl]-4-(cyanomethyl)-2-methylpiperidine-1-carboxylate] | 614
C[C@H]1CN(C(=O)OC(C)(C)C)CC[C@]1(CC#N)n1cc(C(N)=O)c(Nc2ccccc2)n1 (single isomer, unassigned) [Example 48-1, tert-Butyl (3S,4R or 3R,4S)-4-[4-carbamoyl-3-(phenylamino)-1H-pyrazol-1-yl]-4-(cyanomethyl)-3-methylpiperidine-1-carboxylate] | 24
C[C@H]1CN(C(=O)OC(C)(C)C)CC[C@]1(CC#N)n1cc(C(N)=O)c(Nc2ccccc2)n1 (single isomer, unassigned) [Example 48-2, tert-Butyl (3S,4R or 3R,4S)-4-[4-carbamoyl-3-(phenylamino)-1H-pyrazol-1-yl]-4-(cyanomethyl)-3-methylpiperidine-1-carboxylate] | 487
N#CCC1(n2cc(C(N)=O)c(Nc3ccc(F)cc3)n2)CCN(C(=O)OC2CCOC2)CC1 (single isomer, unassigned) [Example 50-1, (3S or 3R)-tetrahydrofuran-3-yl 4-{4-carbamoyl-3-[(4-fluorophenyl)amino]-1H-pyrazol-1-yl}-4-(cyanomethyl)piperidine-1-carboxylate] | 47
N#CCC1(n2cc(C(N)=O)c(Nc3ccc(F)cc3)n2)CCN(C(=O)OC2CCOC2)CC1 (single isomer, unassigned) [Example 50-2, (3S or 3R)-tetrahydrofuran-3-yl4-{4-carbamoyl-3-[(4-fluorophenyl)amino]-1H-pyrazol-1-yl}-4-(cyanomethyl)piperidine-1-carboxylate] | 62
N#CCC1(n2cc(C(N)=O)c(Nc3ccccc3)n2)CCOCC1 [Example 6-5, 1-[4-(cyanomethyl)tetrahydro-2H-pyran-4-yl]-3-(phenylamino)-1H-pyrazole-4-carboxamide] | 133
N#CCC1(n2cc(C(N)=O)c(Nc3ccc(F)cc3)n2)CCN(C(=O)OC2CCOC2)CC1 (centres unmarked) [Example 30-46, tetrahydrofuran-3-yl 4-{4-carbamoyl-3-[(4-fluorophenyl)amino]-1H-pyrazol-1-yl}-4-(cyanomethyl)piperidine-1-carboxylate] | 37
N#CCC1(n2cc(C(N)=O)c(Nc3ccc(F)cc3)n2)CCC(=O)CC1 [Example 40-1A, 1-(1-(Cyanomethyl)-4-oxocyclohexyl)-3-((4-fluorophenyl)amino)-1H-pyrazole-4-carboxamide] | 39

Target: JAK1 (Homo sapiens (Human), UniProt P23458)
Experiment: Jak Biochemical HTRF Assay, JAK1
Details: HTRF biochemical assay, GST-tagged catalytic domain; top concentration tested […]; read-out: JAK1 IC50
Description: as §1, §2

Sequence of JAK1 (P23458 875-1153): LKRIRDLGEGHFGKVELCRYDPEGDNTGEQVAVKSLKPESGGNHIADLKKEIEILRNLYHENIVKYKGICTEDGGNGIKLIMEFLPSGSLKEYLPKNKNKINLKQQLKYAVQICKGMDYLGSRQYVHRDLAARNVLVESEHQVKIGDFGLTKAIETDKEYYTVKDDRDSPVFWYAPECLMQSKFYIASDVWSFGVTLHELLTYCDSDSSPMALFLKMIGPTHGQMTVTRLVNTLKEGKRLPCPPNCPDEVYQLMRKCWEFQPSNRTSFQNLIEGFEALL

SMILES | IC50 [nM]
C[C@H]1C[C@](CC#N)(n2cc(C(N)=O)c(Nc3ccccc3)n2)CCN1C(=O)OC(C)(C)C (racemic) [Example 2-10] | 2
C[C@@H]1C[C@](CC#N)(n2cc(C(N)=O)c(Nc3ccccc3)n2)CCN1C(=O)OC(C)(C)C (racemic) [Example 2-11, tert-butyl (2R,4R and 2S,4S)-4-[4-carbamoyl-3-(phenylamino)-1H-pyrazol-1-yl]-4-(cyanomethyl)-2-methylpiperidine-1-carboxylate] | 29
N#CCC1(n2cc(C(N)=O)c(Nc3ccc(F)cc3)n2)CCC(Nc2cc(F)ccc2F)CC1 (stereo not drawn) [Example 40-50, Cis and trans 1-{1-(cyanomethyl)-4-[(2,5-difluorophenyl)amino]cyclohexyl}-3-[(4-fluorophenyl)amino]-1H-pyrazole-4-carboxamide] | 0.1
N#CCC1(n2cc(C(N)=O)c(Nc3ccc(F)cc3)n2)CCC(NCCO)CC1 (stereo not drawn) [Example 40-68, Cis or trans 1-{1-(cyanomethyl)-4-[(2-hydroxyethyl)amino]cyclohexyl}-3-[(4-fluorophenyl)amino]-1H-pyrazole-4-carboxamide] | 69
CNC1CCC(CC#N)(n2cc(C(N)=O)c(Nc3ccc(F)cc3)n2)CC1 (stereo not drawn) [Example 40-78, Cis or trans 1-[1-(cyanomethyl)-4-(methylamino)cyclohexyl]-3-[(4-fluorophenyl)amino]-1H-pyrazole-4-carboxamide] | 12
N#CCC1(n2cc(C(N)=O)c(Nc3ccnc(F)c3)n2)CCC(Nc2ccccc2)CC1 (stereo not drawn) [Example 40-86, Cis or trans 1-[1-(cyanomethyl)-4-(phenylamino)cyclohexyl]-3-[(2-fluoropyridin-4-yl)amino]-1H-pyrazole-4-carboxamide] | 0.06
N#CCC1(n2cc(C(N)=O)c(Nc3ccc(S(=O)(=O)C(F)F)cc3)n2)CCC(N2CC(F)C2)CC1 (stereo not drawn) [Example 40-91, Cis or trans 1-[1-(cyanomethyl)-4-(3-fluoroazetidin-1-yl)cyclohexyl]-3-({4-[(difluoromethyl)sulfonyl]phenyl}amino)-1H-pyrazole-4-carboxamide] | 67
N#CCC1(n2cc(C(N)=O)c(Nc3ccc(F)cc3)n2)CCC(NCc2ccc(C#N)cc2)CC1 (stereo not drawn) [Example 40-97, Cis or trans 1-{4-[(4-cyanobenzyl)amino]-1-(cyanomethyl)cyclohexyl}-3-[(4-fluorophenyl)amino]-1H-pyrazole-4-carboxamide] | 25
N#CCC1(n2cc(C(N)=O)c(Nc3ccc(F)cc3)n2)CCC(NCC(F)(F)F)CC1 (stereo not drawn) [Example 40-98, Cis or trans 1-{1-(cyanomethyl)-4-[(2,2,2-trifluoroethyl)amino]cyclohexyl}-3-[(4-fluorophenyl)amino]-1H-pyrazole-4-carboxamide] | 1
N#CCC1(n2cc(C(N)=O)c(Nc3ccc(F)cc3)n2)CCC(NCC(F)(F)F)CC1 (stereo not drawn) [Example 40-101, Cis or trans 1-{1-(cyanomethyl)-4-[(2,2,2-trifluoroethyl)amino]cyclohexyl}-3-[(4-fluorophenyl)amino]-1H-pyrazole-4-carboxamide] | 18
N#CCC1(n2cc(C(N)=O)c(Nc3ccc(S(=O)(=O)C(F)F)cc3)n2)CCC(N2CC(F)C2)CC1 (stereo not drawn) [Example 40-105, Cis or trans 1-[1-(cyanomethyl)-4-(3-fluoroazetidin-1-yl)cyclohexyl]-3-({4-[(difluoromethyl)sulfonyl]phenyl}amino)-1H-pyrazole-4-carboxamide] | 0.08
N#CCC1(n2cc(C(N)=O)c(Nc3ccnc(F)c3)n2)CCC(NCc2cccc(O)c2)CC1 (stereo not drawn) [Example 41-5, Cis or trans 1-{1-(cyanomethyl)-4-[(3-hydroxybenzyl)amino]cyclohexyl}-3-[(2-fluoropyridin-4-yl)amino]-1H-pyrazole-4-carboxamide] | 10
N#CC[C@]1(n2cc(C(N)=O)c(Nc3ccnc(F)c3)n2)CC[C@@H](NS(=O)(=O)c2cccc(F)c2)CC1 [Example 42, cis-1-(1-(Cyanomethyl)-4-(3-fluorophenylsulfonamido)cyclohexyl)-3-((2-fluoropyridin-4-yl)amino)-1H-pyrazole-4-carboxamide] | 8

Same assay, conditions: read-out: JAK1 IC50

SMILES | IC50 [nM]
N#CCC1(n2cc(C(N)=O)c(Nc3ccc(S(=O)(=O)C(F)F)cc3)n2)CCC(Nc2ccccc2O)CC1 (stereo not drawn) [Example 40-48, Cis or trans 1-{1-(cyanomethyl)-4-[(2-hydroxyphenyl)amino]cyclohexyl}-3-({4-[(difluoromethyl)sulfonyl]phenyl}amino)-1H-pyrazole-4-carboxamide] | 0.4
